Laboratory results taken from patent US10631537B2, “Disinfectant composition having residual biocidal properties” (LONZA LLC, priority 2016, dated 2020).

Key:
P. aeruginosa ATCC 15442 = test: First screening: residual self-sanitizing activity of dried film on stainless steel coupon, no wearing (modified EPA Protocol #01-1A); assay type: cell-based; settings: about 30 mg on one square inch, dried overnight, 5 minute contact time
Method: (§1) First round of micro test was to evaluate the efficacy of the biocides against P. aeruginosa. About 30 mg of the biocide/polymer based formulation were coated on the one square inch area of a stainless steel coupon. The treated stainless steel coupons were left on the bench for air drying overnight. The dried stainless steel test samples were sent to a micro lab for efficacy testing against P. aeruginosa ATCC 15442 following a modified version of Residual Self-Sanitizing Activity on Hard, Non-Porous Surfaces (EPA Protocol #01-1A). […] Samples were inoculated with the test organism and held for a 5 minute contact time. Three replicates were tested for each sample.

P. aeruginosa = test: Second screening: efficacy of dried film after abrasion (0 rub vs 12 dry rubs); assay type: cell-based; settings: active 0.4%, film PVOH, about 30 mg; for Log10 Reduction, 12 dry Rubs: no re-inoculation between rubs
Method: as §1, with “sample. Second round of testing was to compare the efficacy after an abrasion process. About 30 mg of the test formulation was coated on the one square inch area of a stainless steel coupon. Samples were divided into two groups: one group had 0 rub, and the other group had 12 dry rubs. No re-inoculation was applied between rubs.” for “sample.”

[1] = active concentration 0.4%, film PVOH

Row | Compound | Log reduction (with culture dilution), average (P. aeruginosa ATCC 15442; [1]) | Log reduction (with culture dilution), average (P. aeruginosa ATCC 15442; active concentration 0.4%, film PVP) | Log10 Reduction, 12 dry Rubs (P. aeruginosa) | Log10 Reduction, No Rub (P. aeruginosa) | Log reduction (with culture dilution), average (P. aeruginosa ATCC 15442; active concentration 1.0%, film PVOH)
1 | CCCCCCCCCCCCN(CCCN)CCCN [N,N-bis(3-aminopropyl) dodecylamine, N,N-bis(3-aminopropyl)dodecylamine] | ≥4.85 log | 4.05 log | 4.77 log10 | 5.22 log10 | 
2 | N=C(NCCCCCCNC(=N)NC(=N)Nc1ccc(Cl)cc1)NC(=N)Nc1ccc(Cl)cc1 [Chlorhexidine digluconate] |  |  | 5.04 log10 | 5.42 log10 | ≥4.85 log
3 | Alkyldimethyl benzyl ammonium chlorides | 3.85 log |  | 3.48 log10 | 3.56 log10 | 
